In assay [1] the target is T1, 5HT3 receptor (Rattus norvegicus, UniProt P35563).
T1 construct: in the anesthetized rat; from tissue; host or cells: whole anesthetized rat (in vivo); endogenous receptor
T1 sequence (P35563 24-483): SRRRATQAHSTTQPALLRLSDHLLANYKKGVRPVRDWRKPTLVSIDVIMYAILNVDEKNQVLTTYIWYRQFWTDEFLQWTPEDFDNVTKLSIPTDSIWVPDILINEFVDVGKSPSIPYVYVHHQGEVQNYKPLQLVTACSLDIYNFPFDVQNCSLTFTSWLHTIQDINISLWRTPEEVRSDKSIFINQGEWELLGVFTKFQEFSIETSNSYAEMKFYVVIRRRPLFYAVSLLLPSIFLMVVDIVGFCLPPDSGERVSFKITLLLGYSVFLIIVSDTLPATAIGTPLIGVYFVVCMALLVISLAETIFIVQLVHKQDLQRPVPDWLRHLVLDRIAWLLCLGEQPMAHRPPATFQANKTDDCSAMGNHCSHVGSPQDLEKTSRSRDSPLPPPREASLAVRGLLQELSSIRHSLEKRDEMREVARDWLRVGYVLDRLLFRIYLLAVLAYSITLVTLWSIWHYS
The experiment in a line: Inhibition of the von Bezold-Jarisch chemoreflex evoked by 5-HT in the anesthetized rat (in vivo 5HT3 antagonist activity). Conditions: 5-HT 20 ug/kg i.v.; for % inhibition of the Bezold-Jarisch reflex: mean ± S.E.M., 6 animals, * p < 0.01 vs controls; for ED50: iv, read-out: ED50 (limits). The method, then: Pharmacol. 326, 36-44 (1984).
The following Table I reports the in vivo 5HT3 antagonist activity data obtained in this test for a representative group of compounds of the invention.
Inhibition of the Bezold-Jarisch reflex elicited by 5-HT
(20 ug/kg i.v.) by i.v. FCE-compounds in the anesthetized
Values are mean ± S.E.M. from 6 animals.
*p < 0.01 vs controls (Dunnett's test).

The target in assay [2] is T2, serotonin 5-HT3 receptors (Rattus norvegicus, UniProt P35563).
T2 construct: in rat entorhinal cortex; from tissue; host or cells: rat entorhinal cortex
T2 sequence (P35563 24-483): T1 sequence (P35563 24-483)
In words: Affinity for serotonin 5-HT3 receptors in rat entorhinal cortex, radioligand 3H-BRL 43694 binding. The protocol: The affinity for serotonin 5-HT3 receptors was assessed for instance in rat entorhinal cortex using a selective radioligand 3H-BRL 43694 as described by Nelson and Thomas (1989).
NELSON D. R. and THOMAS D. R., [3H]-BRL 43694 (Granisetron), a specific ligand for 5-HT3 binding sites in rat brain cortical membranes, Biochem. Pharmac., 38, 1693-1695, 1989. The affinity data for a representative group of compounds of the invention are set out in following Table II.

This is an account of results in patent US5424328A, “Phenyl-imidazolidinone derivatives” (Farmitalia Carlo Erba S.r.l., priority 1992, dated 1995).

In the case of `Cc1[nH]cnc1CN1CCN(c2cccc(Cl)c2)C1=O` [FCE 27733, 1-(5-methyl-1H-imidazol-4-yl)methyl-3-(3-chlorophenyl)-imidazolidin-2-one], the “% inhibition of the Bezold-Jarisch reflex” value (“% inhibition” below) is 7.0 ± 6.0% in assay [1] (dose 1 μg/kg i.v.), 37.8 ± 5.8% in assay [1] (dose 3 μg/kg i.v.) and 89.7 ± 1.8% in assay [1] (dose 10 μg/kg i.v.). Besides, in assay [1], the ED50 is 5.26 µg/kg. Further, the IC50 in assay [2] was found to be 2.1 nM.
Regarding `Cc1[nH]cnc1CN1CCN(c2cccc(Br)c2)C1=O` [FCE 28159, 1-(5-methyl-1H-imidazol-4-yl)methyl-3-(3-bromophenyl)-imidazolidin-2-one], the figures for the “% inhibition” value in assay [1] (dose 3 μg/kg i.v.), in assay [1] (dose 10 μg/kg i.v.) and in assay [1] (dose 30 μg/kg i.v.) were 30.0 ± 5.9%, 64.2 ± 5.0% and 84.4 ± 4.2%, respectively. Moreover, the ED50 in assay [1] amounted to 6.5 µg/kg. Also, the IC50 in assay [2] is 2.7 nM.
Consider `Cc1[nH]cnc1CN1CCN(c2cc(Cl)cc(Cl)c2)C1=O` [FCE 28232, 1-(5-methyl-1H-imidazol-4-yl)methyl-3-(3,5-dichlorophenyl)-imidazolidin-2-one], for which the “% inhibition” value is 1.5 ± 4.8% in assay [1] (dose 0.5 μg/kg i.v.), 18.2 ± 2.4% in assay [1] (dose 1 μg/kg i.v.), 55.5 ± 7.1% in assay [1] (dose 2 μg/kg i.v.) and 88.7 ± 1.8% in assay [1] (dose 8 μg/kg i.v.). Further, in assay [1], the ED50 is 2.2 µg/kg. Besides, in assay [2], the IC50 came to 0.42 nM.
Regarding `Cc1[nH]cnc1CN1CCN(c2cccc(C#N)c2)C1=O` [FCE 28276, 1-(5-methyl-1H-imidazol-4-yl)methyl-3-(3-cyanophenyl)-imidazolidin-2-one], the “% inhibition” value in assay [1] (dose 10 μg/kg i.v.) was 14.3 ± 9.2%; in assay [1] (dose 30 μg/kg i.v.), 44.5 ± 7.3%; in assay [1] (dose 100 μg/kg i.v.), 87.7 ± 7.0%. The ED50 in assay [1] was determined as 32.2 µg/kg. The same compound returned an IC50 in assay [2] of 11 nM.
In the case of `Cc1[nH]cnc1CN1CCN(c2ccccc2)C1=O` [FCE 28277, 1-(5-methyl-1H-imidazol-4-yl)methyl-3-phenyl-imidazolidin-2-one], the “% inhibition” value in assay [1] (dose 1 μg/kg i.v.) was 14.7 ± 3.8%; in assay [1] (dose 3 μg/kg i.v.) it was 37.4 ± 6.5%; in assay [1] (dose 10 μg/kg i.v.) it was 79.4 ± 4.1%. Besides, the 50% effective dose (ED50) in assay [1] is 3.9 µg/kg. Besides, in assay [2], the IC50 is 14 nM.
On to `CSc1cccc(N2CCN(Cc3nc[nH]c3C)C2=O)c1` [FCE 28278, 1-(5-methyl-1H-imidazol-4-yl)methyl-3-(3-methylthiophenyl)-imidazolidin-2-one], for which the “% inhibition” value in assay [1] (dose 10 μg/kg i.v.) is 16.8 ± 8.1%; in assay [1] (dose 30 μg/kg i.v.), 54.7 ± 2.3%; in assay [1] (dose 100 μg/kg i.v.) it was 85.8 ± 1.2%. In assay [1], the 50% effective dose (ED50) came out at 28.6 µg/kg. Moreover, the 50% inhibitory concentration (IC50) in assay [2] was determined as 6.7 nM.
As to `O=C1N(Cc2c[nH]cn2)CCN1c1ccccc1` [FCE 28307, 1-(1H-imidazol-4-yl)methyl-3-phenyl-imidazolidin-2-one], the “% inhibition” value in assay [1] (dose 100 μg/kg i.v.) came to 56.1 ± 10.3%. This compound yielded a 50% inhibitory concentration (IC50) in assay [2] of 44 nM.
As to `Cc1cccc(N2CCN(Cc3nc[nH]c3C)C2=O)c1` [FCE 28355, 1-(5-methyl-1H-imidazol-4-yl)methyl-3-(3-methylphenyl)-imidazolidin-2-one], the figures for the “% inhibition” value in assay [1] (dose 1 μg/kg i.v.), in assay [1] (dose 3 μg/kg i.v.) and in assay [1] (dose 10 μg/kg i.v.) were 14.6 ± 7.3%, 51.1 ± 4.3% and 83.3 ± 3.5%, respectively. Moreover, in assay [1], the ED50 came to 3.1 µg/kg. In addition, in assay [2], the IC50 came to 4 nM.
In the case of `Cc1cc(C)cc(N2CCN(Cc3nc[nH]c3C)C2=O)c1` [FCE 28356, 1-(5-methyl-1H-imidazol-4-yl)methyl-3-(3,5-dimethylphenyl)-imidazolidin-2-one], the “% inhibition” value in assay [1] (dose 100 μg/kg i.v.) came out at 88.6 ± 2.4%. In assay [2], this compound gave an IC50 of 1.8 nM.

What is called ED50 is the dose at which the effect has come halfway, by size or by number of responders. By IC50 is commonly meant the concentration that gives 50% inhibition.
